In the supplement of paper PMC10307832:

What was measured:
Experiment in all cases: relative viability (nuclei count vs DMSO), 5 days (fraction); higher = more cells survive
AZ3146 + Bortezomib = compound: CN1CCC(CC1)OC2=CC(=C(C=C2)NC3=NC=C4C(=N3)N(C(=O)N4C)C5CCCC5)OC [AZ3146] + CC(C)C[C@H](NC(=O)[C@H](Cc1ccccc1)NC(=O)c1cnccn1)B(O)O [Bortezomib] (partner 0.002 µM)
In short: (§1)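 The day after seeding in 1536-well plates, lung cancer cell lines were treated by pin tool with a single drug, or with a fixed anchor-drug dose together with five library-drug doses (not always all listed) in √10 steps. After 5 days, a combined fix-and-stain solution (final 0.05% Triton X-100, 1% formaldehyde, 1 ug/ml Hoechst) was added. Nuclei counted on 4× images gave relative viability as treated counts over vehicle counts, reported as the median of duplicate plates.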

AZ3146 + Linsitinib = compound: CN1CCC(CC1)OC2=CC(=C(C=C2)NC3=NC=C4C(=N3)N(C(=O)N4C)C5CCCC5)OC [AZ3146] + C[C@]1(O)C[C@@H](c2nc(-c3ccc4ccc(-c5ccccc5)nc4c3)c3c(N)nccn32)C1 [Linsitinib] (partner 1 µM)
In short: as §1

GSK-J4 + Tozasertib = compound: CCOC(=O)CCNc1cc(N2CCc3ccccc3CC2)nc(-c2ccccn2)n1 [GSK-J4] + Cc1cc(Nc2cc(N3CCN(C)CC3)nc(Sc3ccc(NC(=O)C4CC4)cc3)n2)n[nH]1 [Tozasertib] (partner 0.1 µM)
In short: as §1

AZ3146 + Foretinib = compound: CN1CCC(CC1)OC2=CC(=C(C=C2)NC3=NC=C4C(=N3)N(C(=O)N4C)C5CCCC5)OC [AZ3146] + COc1cc2c(Oc3ccc(NC(=O)C4(C(=O)Nc5ccc(F)cc5)CC4)cc3F)ccnc2cc1OCCCN1CCOCC1 [Foretinib] (partner 0.25 µM)
In short: as §1

Cell Line | relative viability (AZ3146 + Bortezomib; first compound 0.08 µM) | relative viability (AZ3146 + Bortezomib; first compound 0.253 µM) | relative viability (AZ3146 + Bortezomib; first compound 0.8 µM) | relative viability (AZ3146 + Bortezomib; first compound 2.53 µM) | relative viability (AZ3146 + Bortezomib; first compound 8 µM) | relative viability (AZ3146 + Linsitinib; first compound 0.8 µM) | relative viability (AZ3146 + Linsitinib; first compound 2.53 µM) | relative viability (AZ3146 + Linsitinib; first compound 8 µM) | relative viability (GSK-J4 + Tozasertib; first compound 0.5 µM) | relative viability (GSK-J4 + Tozasertib; first compound 1.581 µM) | relative viability (GSK-J4 + Tozasertib; first compound 5 µM) | relative viability (GSK-J4 + Tozasertib; first compound 15.81 µM) | relative viability (GSK-J4 + Tozasertib; first compound 50 µM) | relative viability (AZ3146 + Foretinib; first compound 0.08 µM) | relative viability (AZ3146 + Foretinib; first compound 0.253 µM) | relative viability (AZ3146 + Foretinib; first compound 0.8 µM) | relative viability (AZ3146 + Foretinib; first compound 2.53 µM) | relative viability (AZ3146 + Foretinib; first compound 8 µM) | relative viability (AZ3146 + Linsitinib; first compound 0.08 µM) | relative viability (AZ3146 + Linsitinib; first compound 0.253 µM)
LCLC-97TM1 | 0.53 | 0.792 | 0.569 | 0.973 | 0.172 | 0.221 | 0.164 | 0.173 | 0.322 | 0.187 | 0.226 | 0.146 | 0.165 | 0.936 | 0.96 | 0.879 | 0.942 | 0.806 | – | –
LCLC-103H | 0.993 | 1.03 | 1 | 0.994 | 0.965 | 1.16 | 1.13 | 1.1 | 0.515 | 0.434 | 0.526 | 0.444 | 0.332 | 0.749 | 0.81 | 0.749 | 0.966 | 0.657 | 1.06 | 0.978
LOU-NH91 | 1.02 | 0.489 | 0.533 | 0.478 | 0.51 | 1.06 | 0.914 | 0.895 | 0.654 | 0.502 | 0.438 | 0.619 | 0.644 | 0.967 | 0.902 | 1.01 | 0.931 | 0.948 | 0.954 | 0.84
LU99A | 0.91 | 1.16 | 1.21 | 1.1 | 1.18 | 0.589 | 0.502 | 0.557 | 0.233 | 0.276 | – | 0.281 | 0.253 | 0.699 | 0.87 | 0.782 | 0.849 | 0.869 | 0.419 | 0.556
LXF-289 | 0.996 | 1.02 | 0.978 | 1.01 | 0.908 | 0.965 | 0.957 | 0.939 | 0.198 | 0.154 | 0.132 | 0.166 | 0.204 | 0.905 | 0.989 | 0.952 | 0.978 | 0.914 | 0.885 | 1.01
NCI-H23 | 1.15 | 1.08 | 1.21 | 1.11 | 0.876 | 0.616 | 0.656 | 0.605 | 0.333 | 0.397 | 0.373 | 0.281 | 0.249 | 1.02 | 1.08 | 1.19 | 1.01 | 0.612 | 0.584 | 0.563
NCI-H322M | 1.29 | 1.18 | 1.18 | 1.29 | 1.18 | 0.868 | 0.991 | 0.842 | 0.457 | 0.393 | 0.484 | 0.442 | 0.507 | 0.893 | 0.943 | 0.837 | 0.738 | 0.642 | 0.937 | 0.884
NCI-H441 | 0.394 | 0.743 | 0.602 | 1.02 | 0.346 | 0.474 | 0.635 | 0.621 | 0.595 | 0.634 | 0.526 | 0.559 | 0.494 | 0.92 | 0.949 | 1.06 | 1 | 1.07 | 0.479 | 0.525
NCI-H460 | 1.14 | 0.92 | 1.02 | 0.97 | 0.543 | 0.65 | 0.787 | 0.244 | 0.41 | 0.387 | 0.344 | 0.294 | 0.283 | 1.01 | 1.06 | 0.92 | 0.874 | 0.312 | 0.719 | 0.824
NCI-H520 | 0.355 | 0.677 | 0.614 | 0.673 | 0.583 | 1.05 | 1.12 | 0.786 | 0.439 | – | 0.497 | 0.39 | 0.425 | 0.566 | 0.867 | 0.58 | 0.91 | 0.83 | 0.843 | 0.896
NCI-H596 | 0.961 | 1.05 | – | 1.07 | 0.935 | 1.01 | 1.04 | 1.1 | 0.953 | 0.891 | 0.971 | 0.847 | 0.691 | 0.793 | 0.714 | 0.999 | 0.691 | 0.881 | 1.1 | 1.01
NCI-H647 | 0.918 | 0.941 | 0.996 | 1.21 | 0.405 | 1.1 | 1.16 | 0.434 | 0.315 | 0.192 | 0.178 | 0.28 | 0.155 | 1.01 | 1.21 | 0.857 | 1.16 | 1.21 | 1.14 | 1.3
NCI-H650 | 0.519 | 0.691 | 0.762 | 0.999 | 0.897 | 0.8 | 1.26 | 0.779 | 0.677 | 0.727 | 0.432 | 0.526 | 0.459 | 0.812 | 0.996 | 0.961 | 1.03 | 1.18 | 0.539 | 0.805
NCI-H661 | 0.71 | 0.893 | 0.92 | 0.922 | 0.692 | 0.603 | 0.584 | 0.616 | 0.355 | 0.3 | 0.357 | 0.335 | 0.413 | 0.98 | 1.03 | 0.97 | 0.982 | 0.764 | 0.61 | 0.6
NCI-H727 | 1.02 | 0.953 | 0.717 | 0.934 | 1.18 | 0.35 | 0.269 | 0.26 | 0.714 | 0.541 | 0.621 | 0.585 | 0.463 | 0.952 | 0.967 | 0.975 | 0.981 | 0.86 | 0.319 | 0.188
NCI-H838 | 0.908 | 0.832 | 0.882 | 0.738 | 0.302 | 0.97 | 0.971 | 0.79 | 0.299 | 0.26 | – | 0.26 | 0.21 | 1.06 | 1.09 | 0.954 | 1.03 | 0.788 | 0.921 | 1
NCI-H1355 | 1.09 | 1.19 | 1.17 | 1.25 | 1.28 | 0.825 | 0.864 | 0.885 | 0.517 | 0.517 | 0.575 | 0.439 | 0.437 | 0.974 | 0.968 | 0.936 | 1.04 | 1.05 | 0.774 | 0.854
NCI-H1437 | 0.497 | 0.441 | 0.469 | 0.535 | 0.479 | 1.01 | 1.04 | 1.03 | 0.391 | 0.372 | 0.384 | 0.377 | 0.293 | 1.24 | 1.31 | 1.26 | 1.35 | 1.26 | 0.967 | 0.996
NCI-H1651 | 0.827 | 1.02 | 0.995 | 0.921 | 0.969 | 1.04 | 0.989 | 1 | 0.674 | 0.623 | 0.807 | 0.569 | 0.567 | 0.729 | 0.726 | 0.809 | 0.849 | 0.836 | 0.886 | 1.07
NCI-H1666 | 0.838 | 0.791 | 0.948 | 0.809 | 0.743 | 0.906 | 0.829 | 0.858 | 0.606 | 0.499 | 0.635 | 0.534 | 0.502 | 0.964 | 0.994 | 1.02 | 1.05 | 0.839 | 0.738 | 0.862
NCI-H1734 | 0.98 | 1.03 | 0.895 | 0.992 | 0.834 | 0.965 | 0.877 | 0.934 | 0.266 | 0.251 | 0.26 | 0.246 | 0.259 | 0.811 | 0.859 | 0.885 | 0.853 | 0.705 | 0.787 | 0.871
NCI-H1755 | 1.03 | 0.996 | 0.921 | 1.04 | 0.667 | 0.932 | 1.01 | 0.972 | 0.585 | 0.582 | 0.553 | 0.531 | 0.581 | 0.917 | 0.935 | 0.859 | 0.915 | 0.97 | 0.885 | 1.02
NCI-H1915 | 0.933 | 1.01 | 0.502 | 0.955 | 0.973 | 1.09 | 1.1 | 1.11 | 0.404 | 0.395 | – | 0.409 | 0.337 | 0.92 | 1.12 | 1.1 | 1.22 | 1.16 | 1.09 | 1.12
NCI-H1975 | 0.36 | 0.425 | 0.383 | 0.384 | 0.256 | 1 | 0.978 | 0.352 | 0.721 | 0.716 | 0.539 | 0.659 | 0.798 | 0.915 | 0.886 | 1.04 | 0.977 | 0.362 | 0.988 | 0.986
NCI-H1993 | 1.05 | 1.07 | 1.19 | 1.2 | 0.976 | 0.782 | 0.789 | 0.704 | 0.51 | 0.562 | 0.646 | 0.503 | 0.497 | 0.866 | 0.776 | 0.771 | 0.834 | 0.834 | 0.689 | 0.731
NCI-H2009 | 0.824 | 1.08 | 1.05 | 1.04 | 0.636 | 1.22 | 1.27 | 1.16 | 0.69 | 0.663 | 0.681 | 0.717 | 0.306 | 1.11 | 1.28 | 1.26 | 1.22 | 0.957 | 1.09 | 1.22
NCI-H2023 | 0.938 | 1.05 | 1.03 | 0.997 | 0.268 | 0.612 | 0.677 | 0.546 | 0.384 | – | 0.335 | 0.371 | 0.222 | 0.783 | 0.788 | 0.774 | 0.949 | 0.227 | 0.743 | 0.694
